Laboratory results from ChEMBL document CHEMBL1149067, “Ochrindoles A-D: new bis-indolyl benzenoids from the sclerotia of Aspergillus ochraceus NRRL 3519” (J Nat Prod, 1994).

Tests used:
Helicoverpa zea = test: Toxicity against Helicoverpa zea larvae assessed as weight gain relative to control; format: organism-based; details: in vivo
Bacillus subtilis = test: Antimicrobial activity against Bacillus subtilis at 100 ug/disk by standard disk assay; format: functional; details: read-out: IZ
Carpophilus = test: Toxicity against Carpophilus hemipterus assessed as feeding reduction at 200 ppm relative to control; format: organism-based; parameters: scale not given: the % may be the effect or the level left; details: in vivo

SMILES: COc1c(CC=C(C)C)c(-c2c[nH]c3ccccc23)c(OC)c(O)c1-c1c[nH]c2ccccc12 [OCHRINDOLE A]
- Activity (Helicoverpa zea): 30%
- zone of inhibition at 100 µg/disc (Bacillus subtilis): 15 mm
- Activity (Carpophilus): 20%

SMILES: COc1c(C/C=C(\C)CO)c(-c2c[nH]c3ccccc23)c(OC)c(O)c1-c1c[nH]c2ccccc12 [OCHRINDOLE B]
- zone of inhibition at 100 µg/disc (Bacillus subtilis): 15 mm

SMILES: COc1c(CC=C(C)C)c(-c2c[nH]c3ccccc23)c(O)c(O)c1-c1c[nH]c2ccccc12 [OCHRINDOLE C]
- zone of inhibition at 100 µg/disc (Bacillus subtilis): 15 mm

SMILES: CC(C)=CCC1=C(c2c[nH]c3ccccc23)C(=O)C(O)=C(c2c[nH]c3ccccc23)C1=O [OCHRINDOLE D]
- zone of inhibition at 100 µg/disc (Bacillus subtilis): 15 mm
